Reference: patent publication US9957230B2, “Synergistic compositions” (Cadila Healthcare Limited, priority 2013, dated 2018)
Several values for one entry are separate records, joined by “and”; a condition that tells them apart may be missing. Equal entries are not always repeated. Structures can show the parent of a compound that is named as a salt.

What was measured:
Format in all cases: in vivo
[1] = tested on: high fat high cholesterol fed Syrian golden hamster; experiment: Lipid lowering effects with Rosuvastatin Calcium in HF-HC fructose diet Syrian golden hamsters (study III); conditions: Compound (Ia) 3 mg/kg
Description: The in-vivo efficacy was done in high fat high cholesterol fed Syrian golden hamster. It is an excellent model to investigate hepatic assembly and secretion of lipoprotein since its lipoprotein metabolism closely resembles that of humans as they have cholesteryl ester transfer protein (CETP) as like human. Feeding high fat high cholesterol diet to Syrian golden hamster causes hypercholesterolemia and hypertriglyceridemia which causes an increase in LDL levels and decrease in HDL-C/TC ratio.
In this experiment, 21 Syrian golden hamsters which were kept on high fat-high cholesterol (HF-HC) fructose diet were divided into 3 treatment groups and one group was on normal diet control which was NIN (National Institute of Nutrition, NIN diet) control, the treatment given was as per Table no. 1. NIN control and HF-HC fructose diet vehicle control groups were treated with vehicle (10% Polyethylene glycol (PEG) 400+90% of 0.5% methyl cellulose) and other three groups with treatment mentioned in Table no. 13. The treatment was given oral gavages once daily for 7 days.
Calculations of the % change in LDL-C levels, HDL-C and LDL-C/HDL-C ratio (Vs HF-HC fructose diet control) were performed using MS Excel.

db/db mice [2] = experiment: Antidiabetic activity with Exenatide or Glimepiride in db/db mice (studies VII and VIII): non-fasting serum glucose; conditions: for Serum Glucose (mg/dl) Day 0: Day 0 (pretreatment), male and female db/db mice; for Serum Glucose (mg/dl) Day 6: Day 6, one hour after dose, non-fasting; for % Change Day 6 vs Day 0: serum glucose
Description: The in-vivo efficacy for antidiabetic activity was done in male and female db/db mice of 12-16 weeks of age. Generally obese and diabetic animals are insulin resistant and have abnormalities in glucose and lipid metabolism. The development of diabetes and beta cell dysfunction in these animal models closely parallels the pathophysiology of the disease condition in humans. […] They progressively develop into insulinopenia with age, a feature commonly observed in last stage of type-2 diabetes, when blood sugar levels are insufficiently controlled. Therefore, this genetic model proves to be suitable for predicting the likely therapeutic benefit of novel euglycemic agents in human type-2 diabetes.
(§1) In this experiment, 49 db/db mice of 12-16 week were divided into 7 groups and as per their day 0 serum glucose levels. […] Detail treatments and routes of administrations were mentioned in Table no. 27. The treatment was given once daily for 7 days.
(§2) The blood was collected by retro-orbital sinus puncture method under light ether anesthesia on day 0 (pretreatment) and on day 6 (one hour after dose administration) for non-fasting glucose analysis and oral glucose tolerance test (OGTT) was performed on day 7 of the treatment in fasting condition. After blood collection serum was separated and analyzed glucose analysis using Spectra max and commercial diagnostic kits. The OGTT procedure followed is as given below—
(§3) The calculation for antidiabetic activity i.e. effect on serum glucose and improvement in glucose Area Under Curve (AUC) was calculated using the excel sheet and Graph Pad Prism software. The day-0 and day-6 glucose values of vehicle control and treatment were considered for calculating the effect on serum glucose. The effect on glucose AUC was calculated using the OGTT glucose levels at different time points and the improvement in glucose AUC were the reduction in glucose AUC after the treatment during OGTT.

db/db mice [3] = experiment: Oral glucose tolerance test in db/db mice (studies VII and VIII); conditions: for AUC Glucose: OGTT day 7, fasting, glucose load 2 gm/kg
Description: as §1, §2
Oral Glucose Tolerance Test (OGTT): One day before OGTT all animals were kept on overnight fasting and on the day of OGTT, day 7 of the treatment each animal was dosed with a single dose of vehicle/test compounds administered orally and 60-min post dosing blood was collected (0 min) and glucose load (2 gm/kg/10 ml) administered per orally. Blood was then collected at time points corresponding to 30, 60 and 120 min after glucose load administration. Serum was separated and analyzed for glucose using Spectra max and commercial diagnostic kits.
as §3

db/db mice [4] = experiment: Antidiabetic activity in db/db mice (studies I and II): non-fasting serum glucose; conditions: Compound (Ia) 0.1 mg/kg; for Serum Glucose (mg/dl) Day 0: Day 0 (pretreatment); for Serum Glucose (mg/dl) Day 12: Day 12, non-fasting; for % Change Vs control: serum glucose day 12 vs vehicle control; for % Change Day 12 vs Day 0: serum glucose
Description: The in-vivo efficacy for antidiabetic activity was done for (I) and (II) individually with db/db mice of 13-14 weeks of age.
8. […] 8. The treatment was given oral gavages once daily for 14 days. […]

db/db mice [5] = experiment: Antidiabetic activity with Vildagliptin and Metformin in db/db mice (study IV): non-fasting serum glucose; conditions: Vildagliptin 1 mg/kg
Description: The in-vivo efficacy for antidiabetic activity was done female db/db mice of 10-15 weeks of age.
1. […] 17. The treatment was given oral gavages once daily for 14 days.
(§4) The OGTT procedure followed is as given below—

db/db mice [6] = experiment: Oral glucose tolerance test in db/db mice (studies I and II); conditions: Compound (Ia) 0.1 mg/kg; for AUC Glucose: OGTT day 14, fasting, glucose load 2 gm/kg; for % improvement in AUC glucose vs control: OGTT after 14 days of treatment
Description: 8. […] 8. The treatment was given oral gavages once daily for 14 days.
as §4

[7] = HF-HC fructose diet hamsters, 7 days, Rosuvastatin calcium 0.3 mg/kg
[8] = Table 28, Compound Ia 0.1 mg/kg p.o., Exenatide 0.1 μg/kg i.p. once daily
[9] = Table 30, Compound Ia 0.1 mg/kg, Glimepiride 2 mg/kg p.o. once daily
[10] = Table 9, female db/db mice, Sitagliptin 3 mg/kg p.o. once daily
[11] = Table 9, Sitagliptin 3 mg/kg p.o. once daily
[12] = Table 11, female db/db mice, Metformin 150 mg/kg p.o. once daily
[13] = Table 11, Metformin 150 mg/kg p.o. once daily
[14] = Table 12, Metformin 150 mg/kg p.o.

CCO[C@@H](Cc1ccc(OCCn2c(C)ccc2-c2ccc(SC)cc2)cc1)C(=O)O [Compound (Ia), Benzenepropanoic acid, α-ethoxy-4-[2-[2-methyl-5-[4-(methylthio)phenyl]-1H -pyrrol-1-yl]ethoxy]-, magnesium salt]
reduction in LDL-C [1, 7]: 9.9%
reduction in LDL-C/HDL-C ratio, atherogenic index [1, 7]: 4.9%
Serum LDL-C (mg/dl) Day 0 ([1]; Table 14, Day 0 (pretreatment), HF-HC fructose diet hamsters, Rosuvastatin calcium 0.3 mg/kg oral once daily 7 days): 114.8 mg/dL
LDL-C % Change vs Day 0 ([1]; Table 14, Day 7, Rosuvastatin calcium 0.3 mg/kg): 9.2%
Serum LDL-C (mg/dl) Day 7 ([1]; Table 14, Day 7, HF-HC fructose diet hamsters, Rosuvastatin calcium 0.3 mg/kg oral once daily 7 days): 123.7 mg/dL
% Change vs HF-HC Fructose Control ([1]; Table 14, LDL-C, Day 7, Rosuvastatin calcium 0.3 mg/kg): −9.9%
Serum HDL-C (mg/dl) Day 0 ([1]; Table 15, Day 0 (pretreatment), HF-HC fructose diet hamsters, Rosuvastatin calcium 0.3 mg/kg oral once daily 7 days): 101.8 mg/dL
HDL-C % Change vs Day 0 ([1]; Table 15, Day 7, Rosuvastatin calcium 0.3 mg/kg): 9.8%
Serum HDL-C (mg/dl) Day 7 ([1]; Table 15, Day 7, HF-HC fructose diet hamsters, Rosuvastatin calcium 0.3 mg/kg oral once daily 7 days): 111.5 mg/dL
Serum LDL-C/HDL-C Ratio Day 0 ([1]; Table 16, Day 0 (pretreatment), HF-HC fructose diet hamsters, Rosuvastatin calcium 0.3 mg/kg): 1.13
LDL/HDL % Change Vs Day 0 ([1]; Table 16, Day 7, Rosuvastatin calcium 0.3 mg/kg): −0.3%
Serum LDL-C/HDL-C Ratio Day 7 ([1]; Table 16, Day 7, HF-HC fructose diet hamsters, Rosuvastatin calcium 0.3 mg/kg): 1.09
% Change vs HF-HC Fructose Control ([1]; Table 16, LDL-C/HDL-C ratio, Day 7, Rosuvastatin calcium 0.3 mg/kg): −4.9%
Serum Glucose (mg/dl) Day 0 (db/db mice [2]; [8]): 420.6 mg/dL
Serum Glucose (mg/dl) Day 6 (db/db mice [2]; [8]): 363.4 mg/dL
% Change Vs control (db/db mice [2]; Table 28, serum glucose day 6 vs vehicle control (i.p. PBS or per oral vehicle), Compound Ia 0.1 mg/kg p.o., Exenatide 0.1 μg/kg i.p.): −24.8%
% Change Day 6 vs Day 0 (db/db mice [2]; Table 28, Compound Ia 0.1 mg/kg p.o., Exenatide 0.1 μg/kg i.p.): −13.4%
Serum Glucose (mg/dl) Day 0 (db/db mice [2]; [9]): 420.6 mg/dL
Serum Glucose (mg/dl) Day 6 (db/db mice [2]; [9]): 363.4 mg/dL
% Change Day 6 vs Day 0 (db/db mice [2]; Table 30, Compound Ia 0.1 mg/kg, Glimepiride 2 mg/kg p.o.): −13.4%
% Change Vs control (db/db mice [2]; Table 30 and text, serum glucose day 6 vs vehicle control, Compound Ia 0.1 mg/kg, Glimepiride 2 mg/kg p.o.): −24.8%
reduction in serum glucose (db/db mice [2]; db/db mice, day 6, Compound Ia 0.1 mg/kg p.o., Exenatide 0.1 μg/kg i.p.): 24.8%
AUC Glucose (db/db mice [3]; Table 29, Compound Ia 0.1 mg/kg p.o., Exenatide 0.1 μg/kg i.p.): 46452.6 mg·min/dL
% improvement in AUC glucose vs control (db/db mice [3]; Table 29 and text, OGTT day 7, Compound Ia 0.1 mg/kg p.o., Exenatide 0.1 μg/kg i.p.): 23.7%
AUC Glucose (db/db mice [3]; Table 31, Compound Ia 0.1 mg/kg, Glimepiride 2 mg/kg p.o.): 46452.6 mg·min/dL
% improvement in AUC glucose vs control (db/db mice [3]; Table 31 and text, OGTT after 7 days of treatment, Compound Ia 0.1 mg/kg, Glimepiride 2 mg/kg p.o.): 23.7%
Serum Glucose (mg/dl) Day 0 (db/db mice [4]; [10]): 407.8 ± 28.9 mg/dL
Serum Glucose (mg/dl) Day 12 (db/db mice [4]; [10]): 276.9 ± 39.4 mg/dL
% Change Vs control (db/db mice [4]; [11]): −32.8 ± 6.0%
% Change Day 12 vs Day 0 (db/db mice [4]; [11]): −33.0 ± 5.9%
Serum Glucose (mg/dl) Day 0 (db/db mice [4]; [12]): 407.8 mg/dL
Serum Glucose (mg/dl) Day 12 (db/db mice [4]; [12]): 276.9 mg/dL
% Change Vs control (db/db mice [4]; [13]): −32.8%
% Change Day 12 vs Day 0 (db/db mice [4]; [13]): −33.0%
reduction in serum glucose (db/db mice [4]; female db/db mice, Sitagliptin 3 mg/kg, Metformin 150 mg/kg): 32.8%
Serum Glucose (mg/dl) Day 0 (db/db mice [5]; Table 18, Day 0 (pretreatment), female db/db mice, Compound Ia 0.1 mg/kg, Metformin 100 mg/kg p.o. once daily): 375.4 mg/dL
Serum Glucose (mg/dl) Day 12 (db/db mice [5]; Table 18, Day 12, one hour after dose, non-fasting, Compound Ia 0.1 mg/kg, Metformin 100 mg/kg p.o. once daily): 209.0 mg/dL
% Change Vs control (db/db mice [5]; Table 18, serum glucose day 12 vs vehicle control, Compound Ia 0.1 mg/kg, Metformin 100 mg/kg): −34.3%
% Change Day 12 vs Day 0 (db/db mice [5]; Table 18, serum glucose, Compound Ia 0.1 mg/kg, Metformin 100 mg/kg): −43.8%
reduction in serum glucose (db/db mice [5]; female db/db mice, Compound (Ia) 0.1 mg/kg, Metformin 100 mg/kg): 34.3%
AUC Glucose (db/db mice [6]; Table 10, Sitagliptin 3 mg/kg p.o.): 51757.3 ± 3366.3 mg·min/dL
% improvement in AUC glucose vs control (db/db mice [6]; Table 10 and text, Sitagliptin 3 mg/kg p.o.): 9% and 9.0 ± 5.9%
% improvement in AUC glucose vs control (db/db mice [6]; [14]): 9%
AUC Glucose (db/db mice [6]; [14]): 51757.3 mg·min/dL
